According to ChEMBL document CHEMBL5532652, “Design and synthesis of pterostilbene derivatives bearing triazole moiety that might treat DSS-induced colitis in mice through modulation of NF-κB/MAPK signaling pathways” (Eur J Med Chem, 2024):
pIC50: −log10 of the molar value.

Key:
RAW264.7 [1] = assay: Anti-inflammatory activity in mouse RAW264.7 cells assessed as inhibition of LPS-induced NO production at 10 uM incubated pretreated with compound for 1 hr followed by LPS-induction and measured after 24 hrs by Griess reagent based assay relative to control; format: functional; details: time 25 hrs
RAW264.7 [2] = assay: Anti-inflammatory activity in mouse RAW264.7 cells assessed as inhibition of LPS-induced NO production incubated pretreated with compound for 1 hr followed by LPS-induction and measured after 24 hrs by Griess reagent based assay; format: functional, cell-based
[3] = Cytotoxicity against mouse RAW264.7 cells assessed as reduction in cell viability at 20 uM incubated for 24 hrs in presence of LPS by MTT assay; format: toxicity, cell-based
[4] = Cytotoxicity against mouse RAW264.7 cells assessed as reduction in cell viability at 20 uM incubated for 24 hrs in absence of LPS by MTT assay; format: toxicity, cell-based
[5] = Toxicity in C57BL/6 mouse assessed as body weight loss at 200 mg/kg, po measured for 7 days; format: organism-based; details: in vivo, 168 h, time 7 day
RAW264.7 [6] = assay: Cytotoxicity against mouse RAW264.7 cells assessed as reduction in cell viability at 20 uM incubated for 24 hrs by MTT assay; format: toxicity, cell-based; details: raw264.7, 24 h

In the case of `C=CCCCOc1ccc(/C=C/c2cc(OC)cc(OC)c2-c2cnnn2C(=O)NCCc2ccccc2)cc1`, the inhibition at 10 µM (RAW264.7 [1]) was 67.8%, the pIC50 (RAW264.7 [2]) was 5.19 and the IC50 at 24 h [3] was greater than 50 µM. The IC50 at 24 h [4] was greater than 50 µM.
In the case of `C=CCCOc1ccc(/C=C/c2cc(OC)cc(OC)c2-c2cnnn2C(=O)NCCCl)cc1`, the inhibition at 10 µM (RAW264.7 [1]) was 96.9%, the pIC50 (RAW264.7 [2]) was 5.85 and the IC50 at 24 h [3] was greater than 50 µM. It also gave an IC50 at 24 h [4] greater than 50 µM.
For `O=C(O)c1cc(/N=N/c2ccc(S(=O)(=O)Nc3ccccn3)cc2)ccc1O` [SULFASALAZINE], the Activity [5] was “Non-Toxic”.
In the case of `COc1cc(/C=C/c2ccc(OCc3cc(F)cc(F)c3)cc2)c(-c2cnn[nH]2)c(OC)c1`, the Activity (RAW264.7 [6]) was “Non-Toxic”.
`C=CCOc1ccc(/C=C/c2cc(OC)cc(OC)c2-c2cnnn2C(=O)NCCc2ccccc2)cc1` showed an inhibition at 10 µM (RAW264.7 [1]) of 45.3%, a pIC50 (RAW264.7 [2]) of 4.85 and an IC50 at 24 h [3] greater than 50 µM. The IC50 at 24 h [4] was greater than 50 µM.
`C=CCCCOc1ccc(/C=C/c2cc(OC)cc(OC)c2-c2cnnn2C(=O)NC(C)C)cc1` gave an inhibition at 10 µM (RAW264.7 [1]) of 53.4%, a pIC50 (RAW264.7 [2]) of 5.01 and an IC50 at 24 h [3] greater than 50 µM. The IC50 at 24 h [4] was greater than 50 µM.
In the case of `CCOCCOc1ccc(/C=C/c2cc(OC)cc(OC)c2-c2cnn[nH]2)cc1`, the Activity (RAW264.7 [6]) was “Non-Toxic”.
For `COc1cc(/C=C/c2ccc(OCCc3ccccc3)cc2)c(-c2cnn[nH]2)c(OC)c1`, the Activity (RAW264.7 [6]) was “Non-Toxic”.
In the case of `C=C(C)COc1ccc(/C=C/c2cc(OC)cc(OC)c2-c2cnn[nH]2)cc1`, the Activity (RAW264.7 [6]) was “Non-Toxic”, the inhibition at 10 µM (RAW264.7 [1]) was 74.2% and the pIC50 (RAW264.7 [2]) was 5.15. It also gave an IC50 at 24 h [3] greater than 50 µM and an IC50 at 24 h [4] greater than 50 µM.
With `CCCCOc1ccc(/C=C/c2cc(OC)cc(OC)c2-c2cnn[nH]2)cc1` the Activity (RAW264.7 [6]) was “Non-Toxic”.
For `COc1cc(/C=C/c2ccc(OCc3ccc(Br)cc3)cc2)c(-c2cnn[nH]2)c(OC)c1`, the Activity (RAW264.7 [6]) was “Non-Toxic”.
`C=CCOc1ccc(/C=C/c2cc(OC)cc(OC)c2-c2cnnn2C(=O)NCCCC)cc1` showed an inhibition at 10 µM (RAW264.7 [1]) of 50%, a pIC50 (RAW264.7 [2]) of 4.93 and an IC50 at 24 h [3] greater than 50 µM. It also gave an IC50 at 24 h [4] greater than 50 µM.
Work on `C=CCOc1ccc(/C=C/c2cc(OC)cc(OC)c2-c2cnnn2C(=O)NCCC)cc1` yielded an inhibition at 10 µM (RAW264.7 [1]) of 81.1%, a pIC50 (RAW264.7 [2]) of 5.59 and an IC50 at 24 h [3] greater than 50 µM. The IC50 at 24 h [4] was greater than 50 µM.
For `C=CCCCOc1ccc(/C=C/c2cc(OC)cc(OC)c2-c2cnnn2C(=O)NCCCl)cc1`, the inhibition at 10 µM (RAW264.7 [1]) was 85.9%, the pIC50 (RAW264.7 [2]) was 5.70 and the IC50 at 24 h [3] was greater than 50 µM. The IC50 at 24 h [4] was greater than 50 µM.
Compound `C=C(C)COc1ccc(/C=C/c2cc(OC)cc(OC)c2-c2cnnn2C(=O)NCCc2ccccc2)cc1` has an inhibition at 10 µM (RAW264.7 [1]) of 42.6%, a pIC50 (RAW264.7 [2]) of 4.83 and an IC50 at 24 h [3] greater than 50 µM. For the same compound, the IC50 at 24 h [4] was greater than 50 µM.
Work on `C=CCCOc1ccc(/C=C/c2cc(OC)cc(OC)c2-c2cnnn2C(=O)NCCCC)cc1` yielded an inhibition at 10 µM (RAW264.7 [1]) of 50.6%, a pIC50 (RAW264.7 [2]) of 4.98 and an IC50 at 24 h [3] greater than 50 µM. It also gave an IC50 at 24 h [4] greater than 50 µM.
With `COc1cc(/C=C/c2ccc(OCC3CCCC3)cc2)c(-c2cnn[nH]2)c(OC)c1` the Activity (RAW264.7 [6]) was “Non-Toxic”.
`C=C(C)COc1ccc(/C=C/c2cc(OC)cc(OC)c2-c2cnnn2C(=O)NCCC)cc1` gave an inhibition at 10 µM (RAW264.7 [1]) of 77.5%, a pIC50 (RAW264.7 [2]) of 5.21 and an IC50 at 24 h [3] greater than 50 µM. It also gave an IC50 at 24 h [4] greater than 50 µM.
In the case of `CCOc1ccc(/C=C/c2cc(OC)cc(OC)c2-c2cnn[nH]2)cc1`, the Activity (RAW264.7 [6]) was “Non-Toxic”.
Work on `C=C(C)COc1ccc(/C=C/c2cc(OC)cc(OC)c2-c2cnnn2C(=O)NCC)cc1` yielded an inhibition at 10 µM (RAW264.7 [1]) of 43.6%, a pIC50 (RAW264.7 [2]) of 4.82 and an IC50 at 24 h [3] greater than 50 µM. For the same compound, the IC50 at 24 h [4] was greater than 50 µM.
With `C=C(C)COc1ccc(/C=C/c2cc(OC)cc(OC)c2-c2cnnn2C(=O)NCCCC)cc1` the inhibition at 10 µM (RAW264.7 [1]) was 54.6%, the pIC50 (RAW264.7 [2]) was 4.89 and the IC50 at 24 h [3] was greater than 50 µM. For the same compound, the IC50 at 24 h [4] was greater than 50 µM.
With `COc1cc(/C=C/c2ccc(OCc3ccc(C)cc3)cc2)c(-c2cnn[nH]2)c(OC)c1` the Activity (RAW264.7 [6]) was “Non-Toxic”.
With `C=CCCCOc1ccc(/C=C/c2cc(OC)cc(OC)c2-c2cnnn2C(=O)NCC)cc1` the inhibition at 10 µM (RAW264.7 [1]) was 49.6%, the pIC50 (RAW264.7 [2]) was 4.91 and the IC50 at 24 h [3] was greater than 50 µM. For the same compound, the IC50 at 24 h [4] was greater than 50 µM.
For `C=CCOc1ccc(/C=C/c2cc(OC)cc(OC)c2-c2cnn[nH]2)cc1`, the Activity (RAW264.7 [6]) was “Non-Toxic”, the inhibition at 10 µM (RAW264.7 [1]) was 53.7% and the pIC50 (RAW264.7 [2]) was 4.97. It also gave an IC50 at 24 h [3] greater than 50 µM and an IC50 at 24 h [4] greater than 50 µM.
Work on `C=CCCOc1ccc(/C=C/c2cc(OC)cc(OC)c2-c2cnnn2C(=O)NCC)cc1` yielded an inhibition at 10 µM (RAW264.7 [1]) of 46.3%, a pIC50 (RAW264.7 [2]) of 4.87 and an IC50 at 24 h [3] greater than 50 µM. It also gave an IC50 at 24 h [4] greater than 50 µM.
In the case of `COc1cc(/C=C/c2ccc(OCc3ccc(OC(F)(F)F)cc3)cc2)c(-c2cnn[nH]2)c(OC)c1`, the Activity (RAW264.7 [6]) was “Non-Toxic”.
For `COc1cc(/C=C/c2ccc(OC(=O)N(C)C)cc2)c(-c2cnn[nH]2)c(OC)c1`, the Activity (RAW264.7 [6]) was “Non-Toxic”.
For `COc1cc(/C=C/c2ccc(OCC3CC3)cc2)c(-c2cnn[nH]2)c(OC)c1`, the Activity (RAW264.7 [6]) was “Non-Toxic”.
For `C=C(C)COc1ccc(/C=C/c2cc(OC)cc(OC)c2-c2cnnn2C(=O)NC(C)C)cc1`, the inhibition at 10 µM (RAW264.7 [1]) was 48.2%, the pIC50 (RAW264.7 [2]) was 4.80 and the IC50 at 24 h [3] was greater than 50 µM. For the same compound, the IC50 at 24 h [4] was greater than 50 µM.
With `C=CCCOc1ccc(/C=C/c2cc(OC)cc(OC)c2-c2cnnn2C(=O)NCCc2ccccc2)cc1` the inhibition at 10 µM (RAW264.7 [1]) was 64.6%, the pIC50 (RAW264.7 [2]) was 5.02 and the IC50 at 24 h [3] was greater than 50 µM. It also gave an IC50 at 24 h [4] greater than 50 µM.
In the case of `C=CCOc1ccc(/C=C/c2cc(OC)cc(OC)c2-c2cnnn2C(=O)NC(C)C)cc1`, the inhibition at 10 µM (RAW264.7 [1]) was 75%, the pIC50 (RAW264.7 [2]) was 5.10 and the IC50 at 24 h [3] was greater than 50 µM. The IC50 at 24 h [4] was greater than 50 µM.
With `CCOC(=O)COc1ccc(/C=C/c2cc(OC)cc(OC)c2-c2cnn[nH]2)cc1` the Activity (RAW264.7 [6]) was “Non-Toxic”.
Work on `C=CCCCOc1ccc(/C=C/c2cc(OC)cc(OC)c2-c2cnnn2C(=O)NCCC)cc1` yielded an inhibition at 10 µM (RAW264.7 [1]) of 55.5%, a pIC50 (RAW264.7 [2]) of 5.21 and an IC50 at 24 h [3] greater than 50 µM. For the same compound, the IC50 at 24 h [4] was greater than 50 µM.
With `C=CCCCOc1ccc(/C=C/c2cc(OC)cc(OC)c2-c2cnnn2C(=O)NCCCC)cc1` the inhibition at 10 µM (RAW264.7 [1]) was 60%, the pIC50 (RAW264.7 [2]) was 5.06 and the IC50 at 24 h [3] was greater than 50 µM. The IC50 at 24 h [4] was greater than 50 µM.
For `COc1ccc(/C=C/c2cc(OC)cc(OC)c2-c2cnn[nH]2)cc1`, the Activity (RAW264.7 [6]) was “Non-Toxic”.
`C=CCCOc1ccc(/C=C/c2cc(OC)cc(OC)c2-c2cnnn2C(=O)NCCC)cc1` gave an inhibition at 10 µM (RAW264.7 [1]) of 72.7%, a pIC50 (RAW264.7 [2]) of 5.50 and an IC50 at 24 h [3] greater than 50 µM. For the same compound, the IC50 at 24 h [4] was greater than 50 µM.
Work on `C=CCCOc1ccc(/C=C/c2cc(OC)cc(OC)c2-c2cnnn2C(=O)NC(C)C)cc1` yielded an inhibition at 10 µM (RAW264.7 [1]) of 61.3%, a pIC50 (RAW264.7 [2]) of 5.10 and an IC50 at 24 h [3] greater than 50 µM. The IC50 at 24 h [4] was greater than 50 µM.
For `C=CCCCOc1ccc(/C=C/c2cc(OC)cc(OC)c2-c2cnn[nH]2)cc1`, the Activity (RAW264.7 [6]) was “Non-Toxic”, the inhibition at 10 µM (RAW264.7 [1]) was 62.2% and the pIC50 (RAW264.7 [2]) was 5.21. The IC50 at 24 h [3] was greater than 50 µM and the IC50 at 24 h [4] was greater than 50 µM.
`C=CCOc1ccc(/C=C/c2cc(OC)cc(OC)c2-c2cnnn2C(=O)NCC)cc1` showed an inhibition at 10 µM (RAW264.7 [1]) of 67.3%, a pIC50 (RAW264.7 [2]) of 5.09 and an IC50 at 24 h [3] greater than 50 µM. The IC50 at 24 h [4] was greater than 50 µM.
In the case of `C=CCCOc1ccc(/C=C/c2cc(OC)cc(OC)c2-c2cnn[nH]2)cc1`, the Activity (RAW264.7 [6]) was “Non-Toxic”, the inhibition at 10 µM (RAW264.7 [1]) was 46.9% and the pIC50 (RAW264.7 [2]) was 4.84. The IC50 at 24 h [3] was greater than 50 µM and the IC50 at 24 h [4] was greater than 50 µM.
For `COCCCCOc1ccc(/C=C/c2cc(OC)cc(OC)c2-c2cnn[nH]2)cc1`, the Activity (RAW264.7 [6]) was “Non-Toxic”.
